Measurements reported in the NIST ThermoML archive (doi:10.1021/je800110r).
Numbers after ± are expanded uncertainties.

Conditions: 323.14 K, Liquid, Vibrating tube method

CCCCCCCCCC [decane]
Conditions | mass density [kg/m3]
10113 kPa | 715.9 ± 2
10141 kPa | 715.8 ± 2
10166 kPa | 715.9 ± 2
10189 kPa | 715.8 ± 2
10208 kPa | 715.9 ± 2
10238 kPa | 716 ± 2
10264 kPa | 716 ± 2
10291 kPa | 716 ± 2
10367 kPa | 716.1 ± 2
10397 kPa | 716.1 ± 2
10421 kPa | 716.1 ± 2
10442 kPa | 716.2 ± 2
10472 kPa | 716.2 ± 2
10493 kPa | 716.2 ± 2
10520 kPa | 716.1 ± 2
10579 kPa | 716.2 ± 2
10608 kPa | 716.2 ± 2
10639 kPa | 716.3 ± 2
10664 kPa | 716.2 ± 2
10686 kPa | 716.4 ± 2
10714 kPa | 716.4 ± 2
10739 kPa | 716.4 ± 2
10771 kPa | 716.4 ± 2
10796 kPa | 716.4 ± 2
10826 kPa | 716.4 ± 2
10852 kPa | 716.5 ± 2
10882 kPa | 716.5 ± 2
10909 kPa | 716.5 ± 2
10931 kPa | 716.6 ± 2
10956 kPa | 716.5 ± 2
10988 kPa | 716.6 ± 2
11010 kPa | 716.6 ± 2
11042 kPa | 716.7 ± 2
11071 kPa | 716.7 ± 2
11103 kPa | 716.7 ± 2
11126 kPa | 716.8 ± 2
11156 kPa | 716.7 ± 2
11185 kPa | 716.7 ± 2
11209 kPa | 716.9 ± 2
11236 kPa | 716.8 ± 2
11259 kPa | 716.7 ± 2
11422 kPa | 717 ± 2
11448 kPa | 717 ± 2
11495 kPa | 717 ± 2
11520 kPa | 717 ± 2
11538 kPa | 717.1 ± 2
11560 kPa | 717 ± 2
11582 kPa | 717 ± 2
11601 kPa | 717.2 ± 2
11626 kPa | 717 ± 2
11645 kPa | 717.1 ± 2
11670 kPa | 717.2 ± 2
11695 kPa | 717 ± 2
11718 kPa | 717.2 ± 2
11739 kPa | 717.1 ± 2
11755 kPa | 717.1 ± 2
11781 kPa | 717.2 ± 2
11813 kPa | 717.3 ± 2
11845 kPa | 717.4 ± 2
11865 kPa | 717.2 ± 2
11891 kPa | 717.4 ± 2
11927 kPa | 717.4 ± 2
11954 kPa | 717.4 ± 2
11974 kPa | 717.4 ± 2
12001 kPa | 717.4 ± 2
12022 kPa | 717.4 ± 2
12046 kPa | 717.5 ± 2
12071 kPa | 717.5 ± 2
12283 kPa | 717.7 ± 2
12299 kPa | 717.6 ± 2
12320 kPa | 717.7 ± 2
12335 kPa | 717.6 ± 2
12350 kPa | 717.7 ± 2
12372 kPa | 717.8 ± 2
12543 kPa | 717.9 ± 2
12558 kPa | 717.9 ± 2
12576 kPa | 717.9 ± 2
12592 kPa | 717.9 ± 2
12612 kPa | 718 ± 2
12628 kPa | 717.9 ± 2
12644 kPa | 717.9 ± 2
12667 kPa | 717.9 ± 2
12689 kPa | 718 ± 2
12714 kPa | 718.1 ± 2
12739 kPa | 718.1 ± 2
12755 kPa | 718 ± 2
12770 kPa | 718 ± 2
12790 kPa | 718.3 ± 2
12807 kPa | 718.1 ± 2
12823 kPa | 718.1 ± 2
12837 kPa | 718 ± 2
12936 kPa | 718.2 ± 2
12949 kPa | 718.2 ± 2
13023 kPa | 718.3 ± 2
13043 kPa | 718.3 ± 2
13073 kPa | 718.3 ± 2
13090 kPa | 718.3 ± 2
13112 kPa | 718.3 ± 2
13128 kPa | 718.4 ± 2
13145 kPa | 718.3 ± 2
13160 kPa | 718.4 ± 2
13180 kPa | 718.4 ± 2
13197 kPa | 718.5 ± 2
13215 kPa | 718.4 ± 2
13228 kPa | 718.4 ± 2
13244 kPa | 718.4 ± 2
13258 kPa | 718.4 ± 2
13272 kPa | 718.4 ± 2
13285 kPa | 718.4 ± 2
13303 kPa | 718.6 ± 2
13314 kPa | 718.5 ± 2
13328 kPa | 718.5 ± 2
13346 kPa | 718.4 ± 2
13361 kPa | 718.4 ± 2
13379 kPa | 718.4 ± 2
13395 kPa | 718.6 ± 2
13413 kPa | 718.5 ± 2
13429 kPa | 718.6 ± 2
13443 kPa | 718.6 ± 2
13457 kPa | 718.6 ± 2
13476 kPa | 718.7 ± 2
13496 kPa | 718.6 ± 2
13510 kPa | 718.6 ± 2
13531 kPa | 718.5 ± 2
13547 kPa | 718.7 ± 2
13565 kPa | 718.7 ± 2
13587 kPa | 718.7 ± 2
13601 kPa | 718.6 ± 2
13622 kPa | 718.7 ± 2
13639 kPa | 718.7 ± 2
13660 kPa | 718.8 ± 2
13677 kPa | 718.8 ± 2
13699 kPa | 718.8 ± 2
13715 kPa | 718.9 ± 2
13732 kPa | 718.8 ± 2
13753 kPa | 718.9 ± 2
13770 kPa | 718.9 ± 2
